The test has as its system sensitive (w.7) and resistant weeds (w.8, w.9). It is filed as in vivo, Amaranthus tuberculatus. As to conditions: table 3, 1 and 2 g/ha.

For `CCOC(=O)COc1ncccc1Oc1cc(-n2c(=O)cc(C(F)(F)F)n(C)c2=O)c(F)cc1Cl` [compound (I).1], the “activity on both sensitive and resistant weeds” value is on record as “very good activity”.

These data come from patent US11766044B2, “Method for controlling PPO resistant weeds” (BASF SE, priority 2016, dated 2023).
